Key:
[1] = test system: reo-3-virus; experiment: Sanitization of a DEAE-Sephadex chromatography column contaminated with virus
Experimental: 1 g of DEAE-Sephadex A-50 (pre-swollen) was added as a slurry in 20 ml of PBS (pH 7.2) to 500 ml of a reo-3-virus-containing aqueous solution (cell culture supernatant with 5% FCS) having a virus titer (CCID50) of 5.5 log10. After stirring for 30 min at approximately 20° C., all the material was transferred to a chromatography column and, after sedimentation of the resin, the column was emptied. The resin was then washed with 150 ml of wash buffer (0.2 M NaCl, pH 6.0 by means of KH2PO4/NaOH) and finally eluted with elution buffer (2.0 M NaCl, pH 8.0 by means of KH2PO4/NaOH). For sanitization, the column was washed (in countercurrent) with 3 column volumes of a wash buffer containing carvacrol solution (1:2000) and allowed to stand overnight at approximately 20° C. under this carvacrol solution. The column was then regenerated with wash buffer.

[2] = test system: non-cytopathogenic pestivirus strain in MDBK cell culture; experiment: Sanitization of a cell culture: titration of cytopathogenic BVDV strain on treated MDBK indicator cells; format: cell-based
Experimental: The infection of the cell culture can be followed, inter alia, by the (fetal) calf serum necessary for cell culture.
An MDBK cell culture which is infected with a non-cytopathogenic pestivirus strain is passaged as is customary (splitting rate 1:5; Eagles Minimal Essential Medium containing 5% FCS) and two cell culture flasks are prepared. One cell culture flask remains untreated, the second cell culture flask is treated with thymol (1:50,000). Both cell culture flasks are passaged weekly, the treatment of the cell culture being carried out for 3 passages. After one passage without treatment, cells from the respective cell culture flasks are inoculated into microtiter plates and a titration (end point dilution method) of a cytopathogenic BVDV strain (Denmark) is carried out on the respective indicator cells. The cytopathogenic effect is evaluated as an indication of virus replication and the virus titer is calculated (Spaerman-Kärber method; Table 2).

[3] = carvacrol solution (1:2000) after about 16 hours' incubation at approximately 20° C. (12 ml)
[4] = wash buffer after sanitation with carvacrol, 2nd column volume (12 ml)

Row | Compound | Virus load (Titer × volume) [1, 3] | Virus titer [1, 3] | Virus titer ([1]; carvacrol solution (1:2000) in wash buffer, 1st column volume (12 ml), titer determined immediately after obtaining the sample, starting material 5.5) | Virus load (Titer × volume) ([1]; carvacrol solution (1:2000), 1st column volume (12 ml), determined immediately after obtaining the sample, starting material 8.2) | Inactivation of reo-3-virus on the column ([1]; sanitization of DEAE-Sephadex column with carvacrol solution (1:2000) overnight) | Virus load (Titer × volume) [1, 4] | Virus titer [1, 4] | Virus titer of cytopathogenic BVDV strain (Denmark) on the indicator cells ([2]; MDBK cells infected with non-cytopathogenic pestivirus, 3 passages treated with thymol (1:50,000), then one passage without treatment, untreated 3.9, starting culture 4.3) | Inactivation of non-cytopathogenic pestivirus in MDBK cells ([2]; thymol (1:50,000), 3 passages)
1 | Cc1ccc(C(C)C)cc1O [Carvacrol solution, carvacrol] | ≦2.6 [log10] | ≦1.5 CCID50/ml[log10] | 4.2 CCID50/ml[log10] | 5.3 [log10] | complete inactivation of reo-3-virus below the detection limit | ≦2.6 [log10] | ≦1.5 CCID50/ml[log10] | – | –
2 | Cc1ccc(C(C)C)c(O)c1 [thymol] | – | – | – | – | – | – | – | 7.6 (CCID50ml) [log10] | the non-cytopathogenic pestivirus is inactivated
